This note sets out measurements from patent US20240360134A1, “PYRAZOLOPYRIMIDINES AND THEIR USES AS PDGFR INHIBITORS” (priority 2021, published 2024).

One test concerns the target VEGFR2, unphosphorylated (Homo sapiens (Human), UniProt P35968). Nature of the test: VEGFR ADP GLO assay. The class given is biochemical. To be noted: 5 nM VEGFR2, 1.2 mM ATP, 1 mg/mL Srctide, 180 min. The procedure: Assay buffer stock contains 50 mM HEPES pH7.5, 10 mM MgCl2, 0.01% Brij-35, and 1 mM EGTA.
Unphosphorylated VEGFR2. 52.6 μM in 50 mM Tris-HCl, pH 8.0, 50 mM NaCl, 5% Glycerol, 0.5 mM TCEP. Store at −80° C. in aliquots.
10 mg/mL srctide solution, prepared in Assay buffer (Assay buffer stock with 2 mM DTT, 0.1% Pluronic F-127, and 0.1 mg/mL ovalbumin). Sonicate 10 mg/ml Srctide solution for 10 minutes and then vacuum filter.
Assay buffer. Add DTT to 2 mM, Pluronic F-127 to 0.1% and ovalbumin to 0.1 mg/mL to Assay buffer stock.
2× kinase solution. Make a working solution of 10 nM unphosphorylated VEGFR2 in Assay buffer. Vacuum filter 2× kinase solution prior to running assay. Keep on ice until use.
2× substrate/ATP solution. Make a working solution of 2 mg/mL srctide and 2.4 mM ATP in Assay buffer. Keep on ice until use.
Step 1. Dispensing inhibitors/controls: Using Echo, dispense 10 nL/well compound serial dilutions in DMSO to columns 1-22 (in 384-well plates) or columns 1-44 (in 1536-well plates). Dilution series=11 pt, 3-fold dilutions. The top compound concentration in the source plate is 4 mM. The top compound concentration in the assay plate is 10 uM. Using Echo, dispense 10 nl/well DMSO to column 23 (in 384-well plates) or columns 45-47 (in 1536-well plates). These wells will serve as negative control wells Using Echo, dispense 10 nl/well 400 uM TAK-593 in DMSO to column 24 (in 384-well plates) or column 48 (in 1536-well plates). The final concentration of TAK-593 in the assay should be 1 uM. These wells will serve as positive control wells.
Step 2. Pre-incubation of inhibitors with kinase: Add 2 μL/well 2× kinase solution. Centrifuge at 1000 rpm for 1 min. Incubate at room temperature for 30 min.
Step 3. Kinase cascade reaction: Add 2 μL/well 2× substrate/ATP solution to initiate kinase reactions. Centrifuge at 1000 rpm for 1 min. Incubate at room temperature for 180 min.
Final concentrations of components in the assay:
Step 4. Quench: Add 2 uL/well ADP Glo Reagent+0.05% CHAPS. Centrifuge at 1000 rpm for 1 min; Incubate at room temperature for one hour.
Step 5. Detection: Add 2 uL/well Kinase Detection Reagent+0.05% CHAPS. Centrifuge at 1000 rpm for 1 min; Incubate at room temperature for 1 hour; Read Luminescence on a plate reader.
% Inhibition: % Inhibition=(NC−sample)/(NC−PC)*100 where NC is the mean of negative control (reactions without inhibitor), and PC is the mean of positive control (1 μM TAK-593).
IC50 values are determined from a 4-parameter fit, using the following equation: Y=Bottom+(Top−Bottom)/(1+10^(Log IC50-X)*Hill Slope), where X=log10 of the compound concentration; top can be defined by PC; bottom defined by NC.

Test [1] concerns the target Tb-labeled inactive PDGFRβ (Homo sapiens (Human), UniProt P09619). Description: biochemical. The class given is binding. To be noted: read-out: PDGFR Lantha IC50.
A further test deals with PDGFRβ (Rattus norvegicus (Rat), UniProt Q05030). Nature of the test: PDGFRβ Cellular Assay (PDGFRb P-Y751 HTRF, PDGF-BB stimulated A10 cells). To be noted: A10 cells, 3 hours compound, 15 ng/mL PDGFbb for 10 minutes; read-out: PDGFR Cellular IC50. The class given is cell-based. How it is done: Cell Culture and Preparation: Cells are cultured according to ATCC procedure (5) with the addition of the antibiotic penicillin-streptomycin. If working from frozen, cells should be thawed according to ATCC procedure. Depending on the cell density of frozen vial, cells will need time to recover from thaw. An 80% confluent T75 flask should be enough for one 384 well plate.
Stock Solutions: Rat PDGFBB. A 100 ug/mL stock is prepared by reconstituting 50 ug in 500 μL of 4 mM HCl and 0.1% BSA. It can be stored for a month at 4° C., or aliquoted out and frozen in the −20/−80° C. to avoid multiple free-thaw cycles.
1× Cisbio cell lysis buffer. The cell lysis buffer is diluted 4-fold with molecular grade water. The blocking agent is then diluted 25-fold in the diluted lysis buffer.
Antibody solutions. Equal amounts d2 and cryptate antibody are diluted 20-fold in detection buffer.
Rat PDGFBB. A working stock of 100 ng/mL is created from the stock solution in 10% FBS culture media.
Step 1: Plating Cells: Media from the A10 cell flask is aspirated. The cells are rinsed with PBS and then trypsinized to disperse the cell layer. The cells are then pelleted are resuspended to 1.25e5 cells/mL. […] Plates are covered and placed in the incubator (37° C. 5% CO2) overnight to allow cells to adhere.
Step 2: Compound Dispense: Approximately 18 hours after plating, dispense 40 nL compound onto cells using Echo. […] The plate is returned to the incubator for 3 hours.
After 10 minutes the media is removed by flicking the plate.
Step 4: Cell lysis and antibody addition: 20 uL lysis buffer per well is added to the plate via Tempest. 5 uL antibody solution is added per well via the Tempest. The plate is placed on the shaker at 230 rpm for 1 hour at room temperature.
Step 5: Detection: The plate is read using the HTRF module on the BMG Pherastar. Data is analyzed using Genedata Screener.
IC50 values are determined from a 4-parameter fit, using the following equation: Y=Bottom+(Top−Bottom)/(1+10((Log IC50−X)*Hill slope)), where X=log10 of the compound concentration; top can be defined by PC; bottom defined by NC.

Test [2] concerns the target His6-TEV-PDGFRβ (557-1016) (Homo sapiens (Human), UniProt P09619). Description: PDGFRβ HTRF Assay. The class given is biochemical. To be noted: 800 μM ATP, 0.5 μM TK-substrate biotin peptide, 30 min pre-incubation, 3 hours reaction; read-out: PDGFR HTRF IC50. The procedure:
Instrumentation: a. Compound liquid handling: LabCyte Echo; b. Reagent liquid handling: Thermo Scientific Multidrop Combi; c. BMG PHERAStar multilabel plate reader.
Protein Reagent: His6-TEV-PDGFRβ Protein Prep prepared at Accelagen.
Assay buffer stock solution, contains 50 mM Hepes, 10 mM MgCl2, 1 mM EGTA, and 0.01% Brij-35, 0.01% ovalbumin, 2 mM DTT at pH 7.5, in molecular biology grade water. Store at room temperature.
Assay buffer. Dilute 5× Kinase buffer 5-fold with molecular biology grade water and add DTT to 2 mM and ovalbumin to 0.1 mg/mL (or 0.01%).
2× protein solution. Make a working solution of […] PDGFRβ in assay buffer. Keep on ice until use to maintain enzyme stability.
2× substrate solution. Make a working solution of 1.6 mM ATP and 1 μM TK-substrate biotin peptide in assay buffer. 3× quench/detection solution.
Step 2. PDGFRβ E+I pre-incubation: Add 2 μL 2× protein solution to columns 1-24 using the Multidrop Combi. Centrifuge at 1000 rpm for 1 min. Incubate 30 min at RT
Step 2. Enzymatic reaction: Add 2 μL substrate solution to columns 1-24 to initiate the reaction using the Multidrop Combi; cover/seal the assay plate to reduce evaporation. Centrifuge at 1000 rpm for 1 min. Incubate at room temperature for 3 hours.
Final concentrations of components in PDGFRp cascade assay:
0.5 μM TK-substrate biotin peptide
Step 3. Quench/Detection: Add 2 μl 3× quench/detection solution to columns 1-24 using the Multidrop Combi; cover/seal the plate. Centrifuge 1 min 1000 rpm. Incubate at RT for 60 min.
HTRF ratio values calculated by the instrument (Ratio is acceptor counts/donor counts*10,000) is exported from the plate reader and used in data analysis. The exported data will be used to calculate 1) compound activity and 2) assay statistics. […] Assay statistics can include Robust Z′ and Signal to Background.
% Inhibition Calculation: Percent inhibition will be calculated for sample wells based on the equation: […]
IC50 Calculation: For IC50 determination, full 11-point dose response data will be processed using the following equation: […]

In general, IC50 refers to the concentration needed to halve the response being measured.

Sequence of Tb-labeled inactive PDGFRβ (P09619 whole entry, looked up): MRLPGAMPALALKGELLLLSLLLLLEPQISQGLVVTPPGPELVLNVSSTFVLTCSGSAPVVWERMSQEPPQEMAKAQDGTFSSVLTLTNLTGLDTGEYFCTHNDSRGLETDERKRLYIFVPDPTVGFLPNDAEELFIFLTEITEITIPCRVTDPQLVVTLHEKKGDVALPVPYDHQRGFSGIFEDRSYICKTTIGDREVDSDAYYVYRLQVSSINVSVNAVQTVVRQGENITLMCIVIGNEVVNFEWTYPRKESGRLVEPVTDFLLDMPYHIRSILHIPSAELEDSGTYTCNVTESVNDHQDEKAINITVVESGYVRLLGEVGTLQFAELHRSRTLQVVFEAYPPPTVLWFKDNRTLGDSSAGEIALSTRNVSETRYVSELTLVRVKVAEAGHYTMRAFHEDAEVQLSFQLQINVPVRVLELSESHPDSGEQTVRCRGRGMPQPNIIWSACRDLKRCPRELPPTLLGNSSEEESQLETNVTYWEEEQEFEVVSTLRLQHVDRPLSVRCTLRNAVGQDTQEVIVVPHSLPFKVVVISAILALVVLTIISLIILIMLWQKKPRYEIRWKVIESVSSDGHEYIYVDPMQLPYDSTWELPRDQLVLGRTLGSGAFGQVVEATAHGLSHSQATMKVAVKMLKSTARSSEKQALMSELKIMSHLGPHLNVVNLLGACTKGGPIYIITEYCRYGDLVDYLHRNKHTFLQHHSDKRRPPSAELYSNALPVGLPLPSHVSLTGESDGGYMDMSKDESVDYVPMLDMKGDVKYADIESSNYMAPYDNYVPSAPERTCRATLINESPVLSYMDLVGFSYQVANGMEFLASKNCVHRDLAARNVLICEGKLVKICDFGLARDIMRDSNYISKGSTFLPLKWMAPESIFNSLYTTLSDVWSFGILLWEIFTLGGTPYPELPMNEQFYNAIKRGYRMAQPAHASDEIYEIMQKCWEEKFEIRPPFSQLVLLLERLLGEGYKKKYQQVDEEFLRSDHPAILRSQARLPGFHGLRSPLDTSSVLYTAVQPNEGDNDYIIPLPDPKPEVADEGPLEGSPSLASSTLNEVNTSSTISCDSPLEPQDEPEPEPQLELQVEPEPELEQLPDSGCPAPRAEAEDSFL
Sequence of His6-TEV-PDGFRβ (557-1016) (P09619 whole entry, looked up): as above
Sequence of VEGFR2, unphosphorylated (P35968 whole entry, looked up): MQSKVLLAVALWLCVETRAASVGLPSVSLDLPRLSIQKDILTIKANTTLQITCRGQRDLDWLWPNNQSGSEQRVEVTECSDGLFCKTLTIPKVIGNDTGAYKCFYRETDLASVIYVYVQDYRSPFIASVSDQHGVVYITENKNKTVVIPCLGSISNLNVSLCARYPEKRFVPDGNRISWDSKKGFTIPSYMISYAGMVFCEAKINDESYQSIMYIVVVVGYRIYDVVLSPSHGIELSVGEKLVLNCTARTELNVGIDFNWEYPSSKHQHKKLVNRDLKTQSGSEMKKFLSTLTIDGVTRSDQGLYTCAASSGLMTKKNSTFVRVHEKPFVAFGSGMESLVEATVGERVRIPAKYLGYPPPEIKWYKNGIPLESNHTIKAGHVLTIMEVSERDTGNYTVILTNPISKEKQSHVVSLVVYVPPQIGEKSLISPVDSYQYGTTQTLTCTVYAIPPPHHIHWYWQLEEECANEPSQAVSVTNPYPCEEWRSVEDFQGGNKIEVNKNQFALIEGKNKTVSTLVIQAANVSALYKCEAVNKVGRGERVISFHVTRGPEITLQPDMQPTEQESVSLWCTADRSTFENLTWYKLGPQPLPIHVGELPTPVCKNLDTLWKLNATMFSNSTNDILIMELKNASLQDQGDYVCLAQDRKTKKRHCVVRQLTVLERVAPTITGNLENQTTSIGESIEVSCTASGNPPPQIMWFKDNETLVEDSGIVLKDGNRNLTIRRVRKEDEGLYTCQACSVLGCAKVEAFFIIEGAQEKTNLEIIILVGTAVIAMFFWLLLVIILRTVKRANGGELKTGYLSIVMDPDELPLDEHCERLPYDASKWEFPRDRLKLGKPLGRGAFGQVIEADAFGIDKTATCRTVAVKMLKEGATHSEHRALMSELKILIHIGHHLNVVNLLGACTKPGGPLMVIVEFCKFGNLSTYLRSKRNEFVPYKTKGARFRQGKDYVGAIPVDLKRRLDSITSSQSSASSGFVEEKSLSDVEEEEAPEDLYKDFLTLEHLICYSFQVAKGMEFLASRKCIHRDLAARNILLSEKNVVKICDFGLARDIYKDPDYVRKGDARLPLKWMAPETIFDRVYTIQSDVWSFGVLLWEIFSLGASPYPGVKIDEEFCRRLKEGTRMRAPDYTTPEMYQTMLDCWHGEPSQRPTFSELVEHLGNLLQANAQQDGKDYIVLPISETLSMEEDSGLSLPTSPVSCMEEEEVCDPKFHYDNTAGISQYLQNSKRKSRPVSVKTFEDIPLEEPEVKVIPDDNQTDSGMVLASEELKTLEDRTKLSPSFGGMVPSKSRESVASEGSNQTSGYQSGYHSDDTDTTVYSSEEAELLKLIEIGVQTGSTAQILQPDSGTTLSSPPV
Sequence of PDGFRβ (Q05030 whole entry, looked up): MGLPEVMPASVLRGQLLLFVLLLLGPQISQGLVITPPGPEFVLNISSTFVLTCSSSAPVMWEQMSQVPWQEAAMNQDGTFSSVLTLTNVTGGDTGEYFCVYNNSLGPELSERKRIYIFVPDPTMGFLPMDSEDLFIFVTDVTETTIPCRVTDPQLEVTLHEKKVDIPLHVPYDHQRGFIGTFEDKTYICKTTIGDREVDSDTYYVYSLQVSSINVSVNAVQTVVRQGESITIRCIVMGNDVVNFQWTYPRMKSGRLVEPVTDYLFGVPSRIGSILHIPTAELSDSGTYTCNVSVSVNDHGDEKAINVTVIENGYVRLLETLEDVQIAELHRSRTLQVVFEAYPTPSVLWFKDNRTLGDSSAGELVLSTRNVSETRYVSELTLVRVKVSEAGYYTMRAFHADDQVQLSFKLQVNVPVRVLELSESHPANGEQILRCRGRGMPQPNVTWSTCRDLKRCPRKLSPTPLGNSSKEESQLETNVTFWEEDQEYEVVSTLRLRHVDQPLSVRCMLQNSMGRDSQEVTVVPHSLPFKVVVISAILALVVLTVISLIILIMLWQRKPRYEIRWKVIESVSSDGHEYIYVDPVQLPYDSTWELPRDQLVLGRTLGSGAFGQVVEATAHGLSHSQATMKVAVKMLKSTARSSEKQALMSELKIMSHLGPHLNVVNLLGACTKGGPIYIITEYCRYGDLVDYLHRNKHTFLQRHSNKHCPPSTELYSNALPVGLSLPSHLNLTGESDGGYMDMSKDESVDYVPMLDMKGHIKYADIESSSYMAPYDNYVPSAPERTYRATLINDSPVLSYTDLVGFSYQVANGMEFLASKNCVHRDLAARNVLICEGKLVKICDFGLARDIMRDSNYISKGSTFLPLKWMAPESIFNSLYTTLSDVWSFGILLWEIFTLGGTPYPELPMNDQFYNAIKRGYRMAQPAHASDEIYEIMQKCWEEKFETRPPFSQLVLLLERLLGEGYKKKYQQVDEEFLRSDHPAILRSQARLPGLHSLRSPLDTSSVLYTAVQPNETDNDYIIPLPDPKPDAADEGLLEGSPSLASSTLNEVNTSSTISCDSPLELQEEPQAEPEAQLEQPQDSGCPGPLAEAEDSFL

As to “2-(3,3-dimethylazetidin-1-yl)-N-(6-methyl-5-((1-methyl-6-((1-methyl-1H-imidazol-4-yl)amino)-1H-pyrazolo[3,4-d]pyrimidin-3-yl)amino)pyridin-3-yl)acetamide [Example 141]”, the IC50 on VEGFR2, unphosphorylated was greater than 7.5 µM; in test [1], 0.0125 µM; at PDGFRβ, 0.0094 µM; in test [2] it was 0.0014 µM.

As to `Cc1ncc(C(=O)NCCN2C[C@H](C)O[C@@H](C)C2)cc1Nc1nn(C)c2nc(Nc3cnn(C)c3)ncc12` (relative stereo) [Example 92, N-(2-(trans-2,6-dimethylmorpholino)ethyl)-6-methyl-5-((1-methyl-6-((1-methyl-1H-pyrazol-4-yl)amino)-1H-pyrazolo[3,4-d]pyrimidin-3-yl)amino)nicotinamide], the IC50 against VEGFR2, unphosphorylated was found to be 6.7 µM; in test [1], 0.0043 µM; at PDGFRβ, 0.0228 µM; in test [2] it was 0.00069 µM.

Consider `Cc1ncc(C(=O)NCCN2[C@H](C)COC[C@H]2C)cc1Nc1nn(C)c2nc(Nc3cnn(C)c3)ncc12` (relative stereo) [Example 94, N-(2-(trans-3,5-dimethylmorpholino)ethyl)-6-methyl-5-((1-methyl-6-((1-methyl-1H-pyrazol-4-yl)amino)-1H-pyrazolo[3,4-d]pyrimidin-3-yl)amino)nicotinamide], for which the half-inhibitory concentration (IC50) against VEGFR2, unphosphorylated worked out at 1.17 µM; in test [1], 0.0021 µM; on PDGFRβ it was 0.0139 µM; in test [2], 0.00033 µM.

With `Cc1ncc(C(=O)NCCN2CCC(F)(F)CC2)cc1Nc1nn(C)c2nc(Nc3cncnc3)ncc12` [Example 1, N-(2-(4,4-difluoropiperidin-1-yl)ethyl)-6-methyl-5-((1-methyl-6-(pyrimidin-5-ylamino)-1H-pyrazolo[3,4-d]pyrimidin-3-yl)amino)nicotinamide], the IC50 on VEGFR2, unphosphorylated is greater than 7.5 µM; in test [1] it was 0.0033 µM; at PDGFRβ it was 0.012 µM; in test [2], 0.00065 µM.

For `Cc1ncc(C(=O)NCCN2CCCC(F)(F)C2)cc1Nc1nn(C)c2nc(Nc3cncnc3)ncc12` [Example 2, N-(2-(3,3-difluoropiperidin-1-yl)ethyl)-6-methyl-5-((1-methyl-6-(pyrimidin-5-ylamino)-1H-pyrazolo[3,4-d]pyrimidin-3-yl)amino)nicotinamide], the IC50 against VEGFR2, unphosphorylated is greater than 7.5 µM; in test [1], 0.0037 µM; at PDGFRβ, 0.0271 µM; in test [2], 0.00057 µM.

`Cc1ncc(C(=O)NCCN2CCC[C@@H]2C)cc1Nc1nn(C)c2nc(Nc3cncnc3)ncc12` [Example 3, (S)-6-methyl-5-((1-methyl-6-(pyrimidin-5-ylamino)-1H-pyrazolo [3,4-d]pyrimidin-3-yl)amino)-N-(2-(2-methylpyrrolidin-1-yl)ethyl)nicotinamide]: the IC50 at VEGFR2, unphosphorylated is greater than 7.5 µM; in test [1], 0.0068 µM; at PDGFRβ, 0.113 µM; in test [2], 0.00068 µM.

Regarding `Cc1ncc(C(=O)NCCN2CCCC23CCC3)cc1Nc1nn(C)c2nc(Nc3cncnc3)ncc12` [Example 4, N-(2-(5-azaspiro[3.4]octan-5-yl)ethyl)-6-methyl-5-((1-methyl-6-(pyrimidin-5-ylamino)-1H-pyrazolo[3,4-d]pyrimidin-3-yl)amino)nicotinamide], the IC50 was greater than 7.5 µM against VEGFR2, unphosphorylated; 0.0032 µM in test [1]; 0.0145 µM at PDGFRβ; 0.00046 µM in test [2].

Consider `Cc1ncc(C(=O)NCCN2CCCC2(C)C)cc1Nc1nn(C)c2nc(NC3CCS(=O)(=O)CC3)ncc12` [Example 45, N-(2-(2,2-dimethylpyrrolidin-1-yl)ethyl)-5-((6-((1,1-dioxido-tetrahydro-2H-thiopyran-4-yl)amino)-1-methyl-1H-pyrazolo[3,4-d]pyrimidin-3-yl)amino)-6-methylnicotinamide], for which the IC50 was greater than 10 µM on VEGFR2, unphosphorylated; 1.64 µM in test [1]; 0.051 µM in test [2].
